# Experimental data reported in ChEMBL document CHEMBL1156050, “Synthesis and evaluation of 9-aminoacridines derived from benzyne click chemistry” (Bioorg Med Chem Lett, 2009).
# Tests used:
# Nucleic Acid [1] = assay: Binding affinity to DNA; format: nucleic-acid assay
# HL-60 = assay: Cytotoxicity against human HL60 cells; format: functional, cell-based
# Nucleic Acid [2] = assay: Displacement of ethidium bromide from DNA by titration
# [3] = Homo sapiens, HL-60, read-out: IC50
log K (Nucleic Acid [1]),C50 (Nucleic Acid [2]),SMILES,IC50 (HL-60; [3]),IC50 (HL-60; hl-60)
,> 200 µM,CN1CCN(C(=O)c2ccc3c(NCCN=[N+]=[N-])c4ccccc4nc3c2)CC1,45.7 µM,
5.65,93.2 µM,CN1CCN(C(=O)c2cccc3c(NCCn4nnc5ccccc54)c4ccccc4nc23)CC1,,Not Active
,> 200 µM,CN1CCN(C(=O)c2cccc3c(NCCN=[N+]=[N-])c4ccccc4nc23)CC1,52 µM,

# Second part, the molecule before the results:
SMILES,log K (Nucleic Acid [1]),C50 (Nucleic Acid [2]),IC50 (HL-60; [3]),IC50 (HL-60; hl-60)
CN(C)CCNC(=O)c1ccc2c(NCCN=[N+]=[N-])c3ccccc3nc2c1,6.37,17.6 µM,5.4 µM,
CN(C)CCNC(=O)c1cccc2c(NCCN=[N+]=[N-])c3ccccc3nc12,6.49,13.6 µM,0.72 µM,
CN(C)CCNC(=O)c1ccc2c(NCCn3nnc4ccccc43)c3ccccc3nc2c1,6.54,12.1 µM,262 µM,
CN(C)CCNC(=O)c1cccc2c(NCCn3nnc4ccccc43)c3ccccc3nc12,6.14,30 µM,23.4 µM,
CN1CCN(C(=O)c2ccc3c(NCCn4nnc5ccccc54)c4ccccc4nc3c2)CC1,6.2,26.2 µM,,Not Active
